Activity calls are given as the source filed them. The rule behind the calls is not given here.
Test system: GENE-TOX genotoxicity assays, various organisms and cells
Experiment: GENE-TOX mutagenicity studies
Settings: for call: Assay Type: In vivo carcinogenicity studies
[1] = Species/Cell Type: Salmonella typhimurium (one or more of the five standard strains: TA98, TA100, TA1535, TA1537, and TA1538), Assay Type: Histidine reverse gene mutation, Ames assay, Assay Code: SALT, Evaluation Type: Evaluation A (Pre-1980)
[2] = Species/Cell Type: Nonhuman, Assay Code: CCG+, Evaluation Type: Evaluation A (Pre-1980)
[3] = Species/Cell Type: Salmonella typhimurium (one or more of the five standard strains: TA98, TA100, TA1535, TA1537, and TA1538), Assay Type: Histidine reverse gene mutation, Ames assay, Assay Code: SAL+, Evaluation Type: Evaluation A (Pre-1980)
[4] = Species/Cell Type: Drosophila melanogaster, Assay Type: Sex-linked recessive lethal gene mutation, Assay Code: SRL+, Evaluation Type: Evaluation A (Pre-1980)
[5] = Species/Cell Type: Drosophila melanogaster, Assay Type: Sex-linked recessive lethal gene mutation, Assay Code: SRLT, Evaluation Type: Evaluation A (Pre-1980)
[6] = Species/Cell Type: Mammalian polychromatic erythrocytes, Assay Type: Micronucleus test, chromosome aberrations, Assay Code: MNT+, Evaluation Type: Evaluation B (Post-1980)
[7] = Species/Cell Type: Bacillus subtilis (H17 vs M45), Assay Type: Rec-assay, spot test, DNA effects (bacterial DNA repair), Assay Code: REW+, Evaluation Type: Evaluation A (Pre-1980)
[8] = Species/Cell Type: Human lymphocytes, Assay Type: Sister-chromatid exchange (SCE) in vitro, Assay Code: SCL+, Evaluation Type: Evaluation B (Post-1980)
[9] = Species/Cell Type: Human, Assay Type: Sister-chromatid exchange (SCE) in vitro, Assay Code: SC1+, Evaluation Type: Evaluation B (Post-1980)
[10] = Species/Cell Type: Nonhuman, Assay Type: Sister-chromatid exchange (SCE) in vitro, Assay Code: SC2+, Evaluation Type: Evaluation B (Post-1980)

For `CN(C)c1ccccc1N=Nc1ccccc1`, the mutagenic call (Species/Cell Type: Salmonella typhimurium, Assay Type: Forward and reverse gene mutation, host-mediated assay, Assay Code: HMA+, Evaluation Type: Evaluation A (Pre-1980)) was “active; positive”.

With `Oc1c(Cl)cc(Cl)c2cccnc12` the mutagenic call [1] was “no conclusion”.

For `Nc1c(N=Nc2ccc(S(=O)(=O)O)cc2)cc(N=Nc2ccc(S(=O)(=O)O)cc2)c(N)c1N=Nc1ccc(S(=O)(=O)O)cc1`, the mutagenic call [1] was “no conclusion”.

In the case of `O=P([O-])([O-])[O-].O=P([O-])([O-])[O-].[Pb+2].[Pb+2].[Pb+2]`, the call [2] is reported as “active; positive”.

For `CCCCN(CCC(=O)O)N=O`, the mutagenic call [3] was “active; positive”.

`COc1ccc(C(=O)/C(Br)=C/C(=O)O)cc1` was tested, and the mutagenic call (Species/Cell Type: Human bone marrow, Assay Type: Chromosome aberrations in vivo, Assay Code: CY5+, Evaluation Type: Evaluation A (Pre-1980)) was “active; positive” and the mutagenic call (Species/Cell Type: Nonhuman bone marrow, Assay Type: Chromosome aberrations, in vivo, Assay Code: CY#+D, Dose Response: With dose response, Evaluation Type: Evaluation A (Pre-1980)) was “active; positive”.

`CN(C)CCOc1ccc2c(c1)CC/C(=C\c1ncc([N+](=O)[O-])n1C)C2=O` was tested, and the mutagenic call [4] was “active; positive” and the mutagenic call (Species/Cell Type: Saccharomyces cerevisiae, Assay Type: Mitotic recombination or gene conversion, Assay Code: YEC+, Evaluation Type: Evaluation A (Pre-1980)) was “active; positive”.

For `C=CCn1c(Cl)c(CC)c(=O)n(CC)c1=O`, the mutagenic call [5] was “no conclusion”.

In the case of `N[C@@H](Cc1ccc(N(CCCl)CCCl)cc1)C(=O)O`, the mutagenic call [4] is reported as “active; positive”, the mutagenic call (Species/Cell Type: Drosophila melanogaster, Sex: Male, Assay Type: Heritable translocation test, chromosome aberrations, Assay Code: DHTT, Evaluation Type: Evaluation A (Pre-1980)) is reported as “no conclusion” and the mutagenic call (Species/Cell Type: Escherichia coli polA (W3110 vs P3478), Assay Type: Rec-assay, DNA effects (bacterial DNA repair), Assay Code: RE2+, Evaluation Type: Evaluation A (Pre-1980)) is reported as “active; positive”. For the same compound, the mutagenic call (Species/Cell Type: Escherichia coli polA (W3119 vs P3478), Assay Type: Rec-assay, DNA effects (bacterial DNA repair), Assay Code: RE1T, Evaluation Type: Evaluation A (Pre-1980)) was “no conclusion”, the mutagenic call (Species/Cell Type: Human cell culture, Assay Type: Chromosome aberrations in vitro, Assay Code: CYZ+, Evaluation Type: Evaluation A (Pre-1980)) was “active; positive” and the mutagenic call (Species/Cell Type: Human lymphocytes, Assay Type: Sister-chromatid exchange (SCE) in vitro, Assay Code: SCL+, Evaluation Type: Evaluation A (Pre-1980)) was “active; positive”. For the same compound, the mutagenic call (Species/Cell Type: Human lymphocytes, Assay Type: Sister-chromatid exchange (SCE) in vitro, Assay Code: SCL+D, Dose Response: With dose response, Evaluation Type: Evaluation B (Post-1980)) was “active; positive”, the mutagenic call (Species/Cell Type: Human lymphocytes, Assay Type: Sister-chromatid exchange (SCE) in vivo, Assay Code: SCY+, Evaluation Type: Evaluation B (Post-1980)) was “active; positive” and the mutagenic call (Species/Cell Type: Human, Assay Type: Sister-chromatid exchange (SCE) in vitro, Assay Code: SC1+D, Dose Response: With dose response, Evaluation Type: Evaluation B (Post-1980)) was “active; positive”. The mutagenic call (Species/Cell Type: Mouse (C3H/10T1/2) cells, Assay Type: Cell transformation, Assay Code: CTH+, Evaluation Type: Evaluation A (Pre-1980)) was “active; positive”, the mutagenic call (Species/Cell Type: Nonhuman, Assay Type: Chromosome aberrations in vitro, Assay Code: CY&+, Evaluation Type: Evaluation A (Pre-1980)) was “active; positive” and the call [2] was “active; positive”. For the same compound, the mutagenic call (Species/Cell Type: Nonhuman, Assay Type: Sister-chromatid exchange (SCE) in vitro, Assay Code: SC2+D, Dose Response: With dose response, Evaluation Type: Evaluation A (Pre-1980)) was “active; positive” and the mutagenic call [3] was “active; positive”.

`Cc1cc(C(=O)NCCc2ccc(S(=O)(=O)NC(=O)NN3CCCCCC3)cc2)no1` was tested, and the mutagenic call (Species/Cell Type: Nonhuman, Assay Type: Sister-chromatid exchange (SCE) in vivo, Assay Code: SC3T, Evaluation Type: Evaluation B (Post-1980)) was “no conclusion”.

For `CCn1c2cc(=N[N+]#N)ccc-2c2ccc(N=[N+]=[N-])cc2c1-c1ccccc1`, the mutagenic call (Species/Cell Type: Saccharomyces cerevisiae, Assay Type: Mitotic recombination or gene conversion, Assay Code: YECT, Evaluation Type: Evaluation A (Pre-1980)) was “no conclusion”, the mutagenic call (Species/Cell Type: Saccharomyces cerevisiae, Assay Type: Mitotic recombination or gene conversion, Assay Code: YEH-, Evaluation Type: Evaluation A (Pre-1980)) was “inactive; negative” and the mutagenic call (Species/Cell Type: Saccharomyces cerevisiae, Assay Type: Reverse gene mutation, Assay Code: YERT, Evaluation Type: Evaluation A (Pre-1980)) was “no conclusion”.

`Cc1cc2c(c3ccc4ccccc4c13)CCC2C` (centres undefined) was tested, and the mutagenic call (Species/Cell Type: Salmonella typhimurium (one or more of the five standard strains: TA98, TA100, TA1535, TA1537, and TA1538), Assay Type: Histidine reverse gene mutation, Ames assay, Assay Code: SAL+*, Activation: With metabolic activation, Evaluation Type: Evaluation A (Pre-1980)) was “active; positive”.

`CC(=O)c1cc([N+](=O)[O-])c[nH]1` was tested, and the mutagenic call [1] was “no conclusion”.

`CC(=O)OCCBr` was tested, and the mutagenic call (Species/Cell Type: Escherichia coli polA (W3119 vs P3478), Assay Type: Rec-assay, DNA effects (bacterial DNA repair), Assay Code: RE1+, Evaluation Type: Evaluation A (Pre-1980)) was “active; positive”.

For `Cc1ccc2ccc3c(C)c4ccccc4c(C)c3c2c1`, the mutagenic call (Species/Cell Type: Chinese hamster lung (V79) cells, Assay Type: Forward gene mutation at the HPRT or ouabain locus, Assay Code: V79-*, Activation: With metabolic activation, Evaluation Type: Evaluation A (Pre-1980)) was “inactive; negative”.

For `COc1ccc(N)c(OC)c1`, the call (Species/Cell Type: Nonhuman, Assay Code: CCG-, Evaluation Type: Evaluation A (Pre-1980)) was “inactive; negative”.

In the case of `CCCC(=O)Nc1ccc(OCC(O)CNC(C)C)c(C(C)=O)c1` (centres undefined), the mutagenic call [6] is reported as “active; positive”.

`CC(C)CN(N=O)/C(N)=N/[N+](=O)[O-]` was tested, and the mutagenic call (Species/Cell Type: Arabidopsis species, Assay Type: Gene mutation, Assay Code: ARM+, Evaluation Type: Evaluation A (Pre-1980)) was “active; positive” and the mutagenic call [3] was “active; positive”.

For `O=C(CCc1ccc([N+](=O)[O-])o1)NC1CCCCC1`, the mutagenic call (Species/Cell Type: Neurospora crassa, Assay Type: Forward gene mutation, Assay Code: NEF-, Evaluation Type: Evaluation A (Pre-1980)) was “inactive; negative”.

In the case of `O=[As](O)(O)O`, the mutagenic call [7] is reported as “active; positive”, the mutagenic call [8] is reported as “active; positive” and the mutagenic call [9] is reported as “active; positive”. The mutagenic call [10] was “active; positive” and the mutagenic call (Species/Cell Type: Syrian hamster embryo (SHE) cells, Assay Type: Cell transformation, clonal assay, Assay Code: CTC+, Evaluation Type: Evaluation A (Pre-1980)) was “active; positive”.

`[Cl][Pd][Cl]` was tested, and the mutagenic call (Species/Cell Type: Bacillus subtilis (H17 vs M45), Assay Type: Rec-assay, spot test, DNA effects (bacterial DNA repair), Assay Code: REW-, Evaluation Type: Evaluation A (Pre-1980)) was “inactive; negative”.

`CN=c1ccc2cc3ccc(NC)cc3oc-2c1` was tested, and the mutagenic call [5] was “no conclusion”.

For `C#Cc1cn([C@H]2C[C@H](O)[C@@H](CO)O2)c(=O)[nH]c1=O`, the mutagenic call [8] was “active; positive” and the mutagenic call [9] was “active; positive”.

For `CN(C)c1ccc(C(=C2C=CC(=[N+](C)C)C=C2)c2c(O)c(S(=O)(=O)[O-])cc3cc(S(=O)(=O)O)ccc23)cc1`, the mutagenic call (Species/Cell Type: Saccharomyces cerevisiae, Assay Type: Mitotic recombination or gene conversion, Assay Code: YEC-, Evaluation Type: Evaluation A (Pre-1980)) was “inactive; negative”.

`S=C1NCCCN1` was tested, and the mutagenic call (Species/Cell Type: Mammalian polychromatic erythrocytes, Assay Type: Micronucleus test, chromosome aberrations, Assay Code: MNTT, Evaluation Type: Evaluation B (Post-1980)) was “no conclusion”.

With `O=[As]O` the mutagenic call [7] was “active; positive”, the mutagenic call (Species/Cell Type: Chinese hamster ovary (CHO) cells, Assay Type: Forward gene mutation at the HPRT locus, Assay Code: CHOT, Evaluation Type: Evaluation B (Post-1980)) was “no conclusion” and the mutagenic call (Species/Cell Type: Human lymphocytes, Assay Type: Sister-chromatid exchange (SCE) in vitro, Assay Code: SCL+D*, Activation: With metabolic activation, Dose Response: With dose response, Evaluation Type: Evaluation B (Post-1980)) was “active; positive”. For the same compound, the mutagenic call (Species/Cell Type: Human, Assay Type: Sister-chromatid exchange (SCE) in vitro, Assay Code: SC1+D*, Activation: With metabolic activation, Dose Response: With dose response, Evaluation Type: Evaluation B (Post-1980)) was “active; positive”, the mutagenic call [6] was “active; positive” and the mutagenic call [10] was “active; positive”. The mutagenic call (Species/Cell Type: Syrian hamster embryo (SA7/SHE) cells, Assay Type: Cell transformation, viral enhanced, Assay Code: CT7+, Evaluation Type: Evaluation A (Pre-1980)) was “active; positive”.

For `COc1ccc(O)cc1`, the mutagenic call (Species/Cell Type: Allium cepa, Assay Type: Chromosome aberrations, Assay Code: ALC+, Evaluation Type: Evaluation A (Pre-1980)) was “active; positive”.

In the case of `Nc1ccc(N)c(Cl)c1`, the call (Species/Cell Type: Nonhuman, Assay Code: CCG-L, Evaluation Type: Evaluation A (Pre-1980)) is reported as “inactive; negative”.

`NC(Cc1c[nH]c2ccccc12)C(=O)O` (centres undefined) was tested, and the mutagenic call (Species/Cell Type: Human, Sex: Male, Assay Type: Sperm morphology, Assay Code: SPH-, Evaluation Type: Evaluation A (Pre-1980)) was “inactive; negative”.

`OC[C@H]1O[C@@H](n2cnc3cncnc32)[C@H](O)[C@@H]1O` was tested, and the mutagenic call (Species/Cell Type: Arabidopsis species, Assay Type: Gene mutation, Assay Code: ARM-, Evaluation Type: Evaluation A (Pre-1980)) was “inactive; negative”.

— PubChem BioAssay AID1259408 (Genetic Toxicology Data Bank (GENE-TOX), 2018)
